The text below walks through data of patent US10676476B2, “Small-molecule HSP90 inhibitors” (Sloan-Kettering Institute for Cancer Research, priority 2005, dated 2020).

The test system of data set [1] is Her2 in SKBr3 cells. Kind of data set: Her2 assay (microtiter immunoassay of Her2 degradation). Format: cell-based, human. The following applies: for IC50: Her2 degradation, SKBr3 cells, 24 h, average of 3 measurements. Here is the method:
Her2 Assay. SKBr3 cells were plated in black, clear-bottom microtiter plates (Corning#3603) at 3,000 cells/well in growth medium (100 μl) and allowed to attach for 24 h at 37° C. and 5% CO2. Growth medium (100 μl) with drug or vehicle (DMSO) was carefully added to the wells, and the plates were placed at 37° C. and 5% CO2. Following 24 h incubation with drugs, wells were washed with ice-cold Tris buffer saline (TBS) containing 0.1% Tween 20 (TBST) (200 μl). A house vacuum source attached to an eight-channel aspirator was used to remove the liquid from the plates. Further, methanol (100 μl at −20° C.) was added to each well, and the plate was placed at 4° C. for 10 min. Methanol was removed by washing with TBST (2×200 μl). After further incubation at RT for 2 h with SUPERBLOCK® R (Pierce 37535) (200 μl), anti-Her-2 (c-erbB-2) antibody (Zymed Laboratories#28-004) (100 μl, 1:200 in SUPERBLOCK® R) was placed in each well. The plate was incubated overnight at 4° C. For control wells, 1:200 dilution of a normal rabbit IgG (Santa Cruz#SC-2027) in SUPERBLOCK® R was used. Each well was washed with TBST (2×200 μl) and incubated at RT for 2 h with an anti-rabbit HRP-linked antibody (Sigma, A-0545) (100 μl, 1:2000 in SuperBlockR). Unreacted antibody was removed by washing with TBST (3×200 μl), and the ECL™ Western blotting reagent (Amersham #RPN2106) (100 μL) was added. The plate was immediately read in an Analyst AD plate reader (Molecular Devices). Each well was scanned for 0.1 s. Readings from wells containing only control IgG and the corresponding HRP-linked secondary antibody were set as background and deducted from all measured values.

Data set [2] deals with SKBr3 breast cancer cells. Kind of data set: Growth inhibition, sulforhodamine B assay. Format: cell-based, human. As to conditions: for IC50: growth inhibition, 72 h, average of 3 measurements. The method, then: Cell Culture. The human breast cancer cell lines SKBr3 and MDA-MB-468 were a gift from Dr. Neal Rosen (MSKCC). Cells were maintained in 1:1 mixture of DME:F12 supplemented with 2 mM glutamine, 50 units/mL penicillin, 50 […] and 10% heat inactivated fetal bovine serum (Gemini Bioproducts#100-10b) and incubated at 37° C., 5% CO2. Growth assays. Growth inhibition studies were performed using the sulforhodamine B assay as previously described.^29 In summary, experimental cultures were plated in microtiter plates (Nunc#167008). One column of wells was left without cells to serve as the blank control. Cells were allowed to attach overnight. The following day, growth medium having either drug or DMSO at twice the desired initial concentration was added to the plate in triplicate and was serially diluted at a 1:1 ratio in the microtiter plate. After 72 h of growth, the cell number in treated versus control wells was estimated after treatment with 50% trichloroacetic acid and staining with 0.4% sulforhodamine B in 1% acetic acid. […] Normal human renal proximal tubular epithelial (RPTEC) cells were purchased pre-seeded in 96-well plates (Clonetics, CC-3190). Upon receipt, cells were placed in a humidified incubator at 37° C., 5% CO2 and allowed to equilibrate for 3 h. Media was removed by suction and replaced with fresh media provided by the manufacturer. Cells were then treated with either drugs or DMSO for 72 h and the IC50 values were determined as described above.

Data set [3] has as its system MDA-MB-468 cells. Nature of the data set: Anti-mitotic assay (Tg-3 microtiter immunoassay). The format is cell-based, human. The following applies: MDA-MB-468 (Rb-defective) cells, 24 h. The method, then: Anti-Mitotic Assay. Black, clear-bottom microtiter 96-well plates (Corning Costar#3603) were used to accommodate experimental cultures. MDA-MB-468 cells were seeded in each well at 8,000 cells per well in growth medium (100 μL), and allowed to attach overnight at 37° C. and 5% CO2. Growth medium (100 μL) with drug or vehicle (DMSO) was gently added to the wells, and the plates were incubated at 37° C. and 5% CO2 for 24 h. Wells were washed with ice-cold TBST (2×200 μL). A house vacuum source attached to an eight-channel aspirator was used to remove the liquid from the 96-well plates. Ice-cold methanol (100 μL) was added to each well, and the plate was placed at 4° C. for 5 min. Methanol was removed by suction and plates were washed with ice-cold TBST (2×200 μL). Plates were further incubated with SuperBlock® blocking buffer (Pierce #37535) (200 μL) for 2 h at RT. The Tg-3 antibody (gift of Dr. Davies, Albert Einstein College of Medicine) diluted 1:200 in SuperBlock® was placed in each well (100 μL) except the control column that was treated with control antibody (Mouse IgM, NeoMarkers, NC-1030-P). After 72 h, wells were washed with ice-cold TBST (2×200 μL). […] Un-reacted antibody was removed by washing the plates with ice-cold TBST (3×200 μL) for 5 min on a shaker. The ECL™ Western Blotting Detection Reagents 1 and 2 in 1:1 mix (100 μL) was placed in each well and the plates were read immediately in an Analyst AD plate reader (Molecular Devices). Luminescence readings were imported into SOFTmax PROR 4.3.1. Anti-mitotic activity was defined as a concentration dependent increase in luminescence readings in compound-treated wells as compared to DMSO only treated wells.

The subject of data set [4] is Hsp90 complexes found in normal lung tissue. Kind of data set: Hsp90 competition assay, lung homogenate. The format is binding, mouse. The following applies: ratio of EC50 values.
Method: (§3) When using cell lysates instead of recombinant protein, the assay measures binding to average. Hsp90 population found in cell specific complexes.
(§4) Hsp90 Competition Assay.Fluorescence polarization measurements were performed on an ANALYST® AD instrument (Molecular Devices, Sunnyvale, Calif.). […] The assay buffer (HFB) contained 20 mM HEPES (K) pH 7.3, 50 mM KCl, 5 mM MgCl2, 20 mM Na2MoO4, 0.01% NP40. Before each use, 0.1 mg/mL bovine gamma globulin (BGG) (Panvera Corporation, Madison, Wis.) and 2 mM DTT (Fisher Biotech, Fair Lawn, N.J.) were freshly added. […] Cell lysates were prepared rupturing cellular membranes by freezing at −70° C. and dissolving the cellular extract in HFB with added protease and phosphotase inhibitors. Organs were harvested from a healthy mouse and homogenized in HFB. Saturation curves were recorded in which GM-BODIPY (5 nM) was treated with increasing amounts of cellular lysates.
For data set [5], the system named is Hsp90 complexes found in normal heart tissue. Nature of the data set: Hsp90 competition assay, heart homogenate. The following applies: ratio of EC50 values. The format is binding, mouse.
Method: as §3, §4
A short description of data set [6]: Tumor and plasma concentration in MDA-MB-468 xenografted mice. The following applies: 24 hours after intraperitoneal injection. Format: in vivo. The method, then: (§1) Mice xenografted with MDA-MB-468 human breast cancer tumors were treated by intraperitoneal injection with Compound 5 at a dosage levels of 25, 50, 75, 100 and 150 mg/kg. The concentration of Compound 5 in the tumor 24 hours after administration was determined. […] Compound 5 was further tested for its effects on the pharmacodynamic marker Raf-1 kinase.

In data set [7] the test system is Raf-1 kinase. Kind of data set: Pharmacodynamic marker in MDA-MB-468 xenograft tumors. Format: in vivo, mice. The method, then: as §1
Hsp90 stabilizes this kinase and maintains it in ready-to-be-activated conformation. Inhibition of Hsp90 leads to disruption of the complex and further ubiquitinylation and degradation of Raf-1 by the proteasome. Thus, Raf-1 degradation in tumors is a functional read-out of Hsp90 inhibition.

The test system of data set [8] is cancer cells. Kind of data set: Potency against cancer cells. Format: cell-based. The method, then:
(§2) Growth over 96 h was assessed.

In data set [9] the test system is H69AR. Kind of data set: Growth over 96 h, resistant SCLC line. The format is cell-based. As to conditions: SCLC cell line resistant to adriamycin. The method, then:
as §2

The test system of data set [10] is SKI-Chen. Nature of the data set: Growth over 96 h, resistant SCLC line. The format is cell-based, human. As to conditions: line from a patient who failed every conventional therapy. The method, then: as §2
For data set [11], the system named is SCLC cells highly resistant to conventional chemotherapy. Nature of the data set: Growth inhibition and cell death, FIG. 8. The format is cell-based. The following applies: FIG. 8, growth over 96 h. Here is the method: as §2
Data set [12] concerns small cell lung tumors. Kind of data set: Pharmacodynamics and anti-cancer activity in a model of small cell lung cancer. Format: in vivo.
Data set [13] in a line: Blood brain barrier penetration.
Data set [14] concerns MRC5 normal lung fibroblasts. Nature of the data set: Selectivity SKBr3 versus MRC5 normal cells. The format is cell-based.

In the case of “9-(Pent-4-ynyl)-8-(2,4,5-trichloro-phenylsulfanyl)adenine [Example 2]”, the IC50 in data set [1] came to 58000 ± 1400 nM; in data set [1] (listed as Comp 2), 1300 ± 400 nM; in [2] it was 48400 ± 2500 nM; in data set [2] (listed as Comp 2), 1800 ± 200 nM. Moreover, the “Her2 degradation in SKBr3 cells” value in data set [1] (result in words) is “induced Her2 degradation”. Further, the “Inhibition of growth in SKBr3 cells” value in data set [2] (result in words) is on record as “inhibition of growth”. Also, the Anti-mitotic entry in [3] is “No”; in [3] (listed as Comp 2), “exhibited anti-mitotic activity and Yes”. Moreover, the Lung/SKBr3 in data set [4] was 2400. Moreover, the Heart/SKBr3 in data set [5] worked out at 590.
Take `COc1cc(Sc2nc3c(N)ncnc3n2CCOC(C)C)c(Cl)cc1Cl` [Example 3, 9-(2-Isopropoxy-ethyl)-8-(2,4-dichloro-5-methoxy-benzenesulfanyl)adenine]: the Anti-mitotic entry in data set [3] is listed as “No”.
For `Nc1ncnc2nc(Sc3cc(Cl)c(Cl)cc3Cl)[nH]c12` [Example 4, 8-(2,4,5-Trichloro-phenylsulfanyl)adenine], in data set [3], the Anti-mitotic entry is “Yes”.
Take `CC(C)NCCCn1c(Sc2cc3c(cc2Br)OCO3)nc2c(N)ncnc21` [Example 5, 8-(6-Bromo-benzo[1,3]dioxol-5-ylsulfanyl)-9-(3-isopropylamino-propyl)adenine]: in data set [3], the Anti-mitotic entry was “Yes”. In data set [6], the Concentration in plasma result is given as “could not be detected”. Besides, the “Raf-1 protein levels in tumor” value in data set [7] (all dosage levels) was “substantial decrease in Raf-1 levels”. The “Expression of PD kinase” value in [7] (protein unaffected by Hsp90 inhibitors) is given as “no change in expression”.
Turning to `C#CCCCn1c(Cc2cc3c(cc2Br)OCO3)nc2c(N)nc(F)nc21` [Example 6, 2-Fluoro-8-(6-bromo-benzo[1,3]dioxol-5-ylmethyl)-9-(pent-4-ynyl)adenine], the Anti-mitotic entry in [3] is listed as “Yes”.
Turning to `C#CCCCn1c(Cc2cc3c(cc2Cl)OCO3)nc2c(N)nc(F)nc21` [Example 7, 2-Fluoro-8-(6-chloro-benzo[1,3]dioxol-5-ylmethyl)-9-(pent-4-ynyl)adenine], the Anti-mitotic entry in [3] is reported as “Yes”.
Regarding `CC(C)NCCCn1c(Cc2cc3c(cc2I)OCO3)nc2c(N)nc(F)nc21` [Example 8, 2-Fluoro-8-(6-iodo-benzo[1,3]dioxol-5-ylmethyl)-9-(3-isopropylamino-propyl) adenine], the Anti-mitotic result in [3] is on record as “Yes”. The “Potency against cancer cells” value in data set [8] is recorded as “low nanomolar potency”.
With `CC(C)NCCCn1c(Sc2cc3c(cc2I)OCO3)nc2c(N)ncnc21` [Example 9, 8-(6-Iodo-benzo[1,3]dioxol-5-ylsulfanyl)-9-(3-isopropylamino-propyl)adenine], half-maximal inhibition in data set [1] (Homo sapiens, SK-BR-3) (IC50) was put at 100 ± 10 nM. Besides, the IC50 in [2] (Homo sapiens, SK-BR-3) was 90 ± 2 nM. For the same compound, in data set [3], the Anti-mitotic result is “Yes”. The Lung/SKBr3 in [4] is given as 48. Moreover, the Heart/SKBr3 in [5] amounted to 140. Further, in data set [8], the “Potency against cancer cells” value was “low nanomolar potency”. Moreover, in data set [9], the “Activity in H69AR” value is given as “retains its activity”. The “Activity in SKI-Chen” value in [10] is listed as “retains its activity”. In addition, the “Effective concentration lower than PU24FC1” value in data set [11] is recorded as “about 20 times”. For the same compound, the Tumor growth inhibition entry in data set [12] (comparable to 17AAG) was “efficiently inhibited the growth of this tumor”. In addition, in [12] (in vivo), the “Apoptosis of the tumor (PARP cleavage)” value was “induces significant apoptosis of the tumor”, the “Duration of downregulation of Hsp90 client proteins in tumor” value was “more than 36 h” and the “Toxicity to the host” value is reported as “without toxicity to the host”. Also, the “Raf-1 and Akt in tumor” value in data set [12] (one administered dose) is “efficiently degraded or inactivated”. For the same compound, the “Blood brain barrier penetration” value in data set [13] was “ability to cross the blood brain barrier”.
As for `C#CCCCn1c(Sc2cc3c(cc2I)OCO3)nc2c(N)ncnc21` [Example 10, 8-(6-Iodo-benzo[1,3]dioxol-5-ylsulfanyl)-9-(pent-4-ynyl)adenine], the Heart/SKBr3 in [5] is given as 370. Besides, the “Selectivity between SKBr3 cells and MRC5 normal lung fibroblasts” value in [14] is listed as “Selectivity was also observed”.
In the case of `C#CCCCn1c(Cc2cc3c(cc2I)OCO3)nc2c(N)nc(F)nc21` [Example 11, 2-Fluoro-8-(6-iodo-benzo[1,3]dioxol-5-ylmethyl)-9-(pent-4-ynyl)adenine], in data set [3], the Anti-mitotic result was “Yes”.
As for `C#CCCCn1c(Cc2cc(OC)c(OC)cc2I)nc2c(N)nc(F)nc21` [Example 12, 2-Fluoro-8-(2-iodo-4,5-dimethoxy-benzyl)-9-(pent-4-ynyl)adenine], in data set [3], the Anti-mitotic result is “No”.
In the case of `C#CCCCn1c(Cc2cc(OC)c(OC)cc2Br)nc2c(N)nc(F)nc21` [Example 13, 2-Fluoro-8-(2-bromo-4,5-dimethoxy-benzyl)-9-(pent-4-ynyl)adenine], in [3], the Anti-mitotic entry is given as “No”.
`C#CCCCn1c(Cc2cc(OC)c(OC)cc2Cl)nc2c(N)nc(F)nc21` [Example 14, 2-Fluoro-8-(2-chloro-4,5-dimethoxy-benzyl)-9-(pent-4-ynyl)adenine]: the Anti-mitotic result in data set [3] is reported as “No”.

One may read the IC50 as the concentration needed to halve the response being measured. High values mean a need for much substance, low ones inhibition by little substance.
